Results published in US20250049926A1, “PHARMACEUTICAL COMPOSITIONS COMPRISING MODIFIED BETACYCLODEXTRINS” (priority 2021, published 2025).

Experiments:
Log P of free base = assay type: physicochemical
Method: (§1) The compound of formula (I) as a free base compound has a quite strong lipophilic behavior (Log P 4.13). […] Taking into account these characteristics, and based on pH requirements for intravenous (IV) solutions which is generally set ≥4.0, solubility studies were carried out to identify solubilizers able to substantially increase the aqueous solubility of the compound of formula (I).

mouse tumor models = experiment: Single agent administration in mouse tumor models; assay type: in vivo
Excerpt: However the compound of formula (I) has low aqueous solubility, leading to the possibility of limited exposure in humans.

[1] = Solubility in water as a function of pH; assay type: physicochemical; conditions: aqueous buffer, pH≥4.5 (practically insoluble)
Method: as §1

[2] = Formulation stability with SBE-beta-CD (assay and impurities by HPLC, stressed storage); assay type: physicochemical
Method: 500 mL batches of each formulation (target pH 4.0 and pH 5.5) are prepared according to the recipe in Table 2 below. The vials used were 50 mL 20 mm Crown, type I, Vial (Gerresheimer), part number 80018303030. The stoppers used were 20 mm S10-F451 Stopper 4432/50 Gray, (Flurotec™ On Plug Only) B2-40 Coating Westar RS part number 19700021.
Each formulation is filtered with a 0.22 μm nylon syringe filter. Vials are filled with 10 mL of formulation, stoppered, sealed and placed at 40° C./75% relative humidity (RH) or at 60° C. (uncontrolled humidity) for up to 14 days. Each vial is placed inverted so that maximum stopper contact with the solution during the stability conditions can be achieved. At each time-point, vials from both conditions and formulations are pulled and analyzed for assay and impurities.
The assay and impurities as measured using the same HPLC method as used for assessing solubility.

[3] = Formulation pH 4.0 (2 mg/mL, SBE-beta-CD 40 mg/mL), 40° C./75% RH, time zero, pH exp 4.1
[4] = Formulation pH 4.0, 40° C./75% RH, Day 1, pH exp 4.1
[5] = Formulation pH 4.0, 40° C./75% RH, Day 3, pH exp 4.0
[6] = Formulation pH 4.0, 40° C./75% RH, Day 7, pH exp 4.1
[7] = Formulation pH 4.0, 40° C./75% RH, Day 14, pH exp 4.1
[8] = Formulation pH 4.0, 60° C., Day 1, pH exp 4.1
[9] = Formulation pH 4.0, 60° C., Day 3, pH exp 4.1
[10] = Formulation pH 4.0, 60° C., Day 7, pH exp 4.1
[11] = Formulation pH 4.0, 60° C., Day 14, pH exp 4.1
[12] = Formulation pH 4.0, 60° C., time zero, pH exp 4.1
[13] = Formulation pH 5.5 (2 mg/mL, SBE-beta-CD 40 mg/mL), 40° C./75% RH, time zero, pH exp 5.6
[14] = Formulation pH 5.5, 40° C./75% RH, Day 1, pH exp 5.6
[15] = Formulation pH 5.5, 40° C./75% RH, Day 3, pH exp 5.6
[16] = Formulation pH 5.5, 40° C./75% RH, Day 7, pH exp 5.7
[17] = Formulation pH 5.5, 40° C./75% RH, Day 14, pH exp 5.6
[18] = Formulation pH 5.5, 60° C., Day 1, pH exp 5.6
[19] = Formulation pH 5.5, 60° C., Day 3, pH exp 5.6
[20] = Formulation pH 5.5, 60° C., Day 7, pH exp 5.7
[21] = Formulation pH 5.5, 60° C., Day 14, pH exp 5.7
[22] = Formulation pH 5.5, 60° C., time zero, pH exp 5.6

logP (Log P of free base): 4.13
solubility [1]: ≤ 20 µg/mL
stability of formulation with SBE-beta-CD ([2]; 60° C. stressed conditions, formulation at pH 5.5 compared to pH 4.0): lower impurities and lower loss of assay
Assay (% of theoretical value of compound of formula (I)) [2, 3]: 96.8%
Total impurities [2, 3]: 1.1 % area
Assay (% of theoretical value of compound of formula (I)) [2, 4]: 98.1%
Total impurities [2, 4]: 1.1 % area
Assay (% of theoretical value of compound of formula (I)) [2, 5]: 98.7%
Total impurities [2, 5]: 1.3 % area
Assay (% of theoretical value of compound of formula (I)) [2, 6]: 103.1%
Total impurities [2, 6]: 1.3 % area
Assay (% of theoretical value of compound of formula (I)) [2, 7]: 97.7%
Total impurities [2, 7]: 1.4 % area
Assay (% of theoretical value of compound of formula (I)) [2, 8]: 97.9%
Total impurities [2, 8]: 1.4 % area
Assay (% of theoretical value of compound of formula (I)) [2, 9]: 98.3%
Total impurities [2, 9]: 2.0 % area
Assay (% of theoretical value of compound of formula (I)) [2, 10]: 97.9%
Total impurities [2, 10]: 3.4 % area
Assay (% of theoretical value of compound of formula (I)) [2, 11]: 87.0%
Total impurities [2, 11]: 4.7 % area
Assay (% of theoretical value of compound of formula (I)) [2, 12]: 96.8%
Total impurities [2, 12]: 1.1 % area
Assay (% of theoretical value of compound of formula (I)) [2, 13]: 99.0%
Total impurities [2, 13]: 1.1 % area
Assay (% of theoretical value of compound of formula (I)) [2, 14]: 97.9%
Total impurities [2, 14]: 1.2 % area
Assay (% of theoretical value of compound of formula (I)) [2, 15]: 100.6%
Total impurities [2, 15]: 1.3 % area
Assay (% of theoretical value of compound of formula (I)) [2, 16]: 100.1%
Total impurities [2, 16]: 1.2 % area
Assay (% of theoretical value of compound of formula (I)) [2, 17]: 94.7%
Total impurities [2, 17]: 1.3 % area
Assay (% of theoretical value of compound of formula (I)) [2, 18]: 97.9%
Total impurities [2, 18]: 1.3 % area
Assay (% of theoretical value of compound of formula (I)) [2, 19]: 100.6%
Total impurities [2, 19]: 1.5 % area
Assay (% of theoretical value of compound of formula (I)) [2, 20]: 100.1%
Total impurities [2, 20]: 2.0 % area
Assay (% of theoretical value of compound of formula (I)) [2, 21]: 97.7%
Total impurities [2, 21]: 3.0 % area
Assay (% of theoretical value of compound of formula (I)) [2, 22]: 99.0%
Total impurities [2, 22]: 1.1 % area
stability of formulation with SBE-beta-CD ([2]; pH 4.0 versus pH 5.5 at 40° C./75% RH stressed conditions): similar
Compound: COc1cc(N2CCNCC2)ccc1Nc1ncc2c(n1)-n1ccc(C(=O)Nc3c(C)cccc3C)c1CC2 [compound of formula (I)]
tumor response (mouse tumor models): regressions (and cures)
